In ChEMBL document CHEMBL1153701, “Synthesis and evaluation of antiallodynic and anticonvulsant activity of novel amide and urea derivatives of valproic acid analogues” (2009):
Activity calls are given as the source filed them. The rule behind the calls is not given here.

What was measured:
Mus musculus [1] = assay: Antiepileptic activity in CF1 mouse assessed as inhibition of maximal electroshock-induced seizures at 30 mg/kg, ip after 0.5 hrs; format: functional, organism-based; set-up: dose 30 mg/kg
Mus musculus [2] = assay: Antiepileptic activity in CF1 mouse assessed as inhibition of maximal electroshock-induced seizures at 100 mg/kg, ip after 0.5 hrs; format: functional, organism-based; set-up: dose 100 mg/kg
Mus musculus [3] = assay: Antiepileptic activity in CF1 mouse assessed as inhibition of maximal electroshock-induced seizures at 30 mg/kg, ip after 4 hrs; format: functional, organism-based; set-up: dose 30 mg/kg
Mus musculus [4] = assay: Antiepileptic activity in CF1 mouse assessed as inhibition of maximal electroshock-induced seizures at 100 mg/kg, ip after 4 hrs; format: functional, organism-based; set-up: dose 100 mg/kg
Mus musculus [5] = assay: Antiepileptic activity in CF1 mouse assessed as inhibition of maximal electroshock-induced seizures at 300 mg/kg, ip after 4 hrs; format: functional, organism-based; set-up: dose 300 mg/kg
Mus musculus [6] = assay: Antiepileptic activity in CF1 mouse assessed as inhibition of subcutaneous pentylenetetrazole-induced seizures at 30 mg/kg, ip after 0.5 hrs; format: functional, organism-based; set-up: dose 30 mg/kg
Mus musculus [7] = assay: Antiepileptic activity in CF1 mouse assessed as inhibition of subcutaneous pentylenetetrazole-induced seizures at 100 mg/kg, ip after 0.5 hrs; format: functional, organism-based; set-up: dose 100 mg/kg
Mus musculus [8] = assay: Antiepileptic activity in CF1 mouse assessed as inhibition of subcutaneous pentylenetetrazole-induced seizures at 30 mg/kg, ip after 4 hrs; format: functional, organism-based; set-up: dose 30 mg/kg
Mus musculus [9] = assay: Antiepileptic activity in CF1 mouse assessed as inhibition of subcutaneous pentylenetetrazole-induced seizures at 100 mg/kg, ip after 4 hrs; format: functional, organism-based; set-up: dose 100 mg/kg
Mus musculus [10] = assay: Neurotoxicity in CF1 mouse assessed as protection against motor impairment at 30 mg/kg, ip after 0.5 hrs by rotarod test; format: functional, organism-based; set-up: dose 30 mg/kg
Mus musculus [11] = assay: Neurotoxicity in CF1 mouse assessed as protection against motor impairment at 100 mg/kg, ip after 0.5 hrs by rotarod test; format: functional, organism-based; set-up: dose 100 mg/kg
Mus musculus [12] = assay: Neurotoxicity in CF1 mouse assessed as protection against motor impairment at 300 mg/kg, ip after 0.5 hrs by rotarod test; format: functional, organism-based; set-up: dose 300 mg/kg
Mus musculus [13] = assay: Neurotoxicity in CF1 mouse assessed as protection against motor impairment at 30 mg/kg, ip after 4 hrs by rotarod test; format: functional, organism-based; set-up: dose 30 mg/kg
Mus musculus [14] = assay: Neurotoxicity in CF1 mouse assessed as protection against motor impairment at 100 mg/kg, ip after 4 hrs by rotarod test; format: functional, organism-based; set-up: dose 100 mg/kg
Mus musculus [15] = assay: Antiepileptic activity in ip dosed CF1 mouse assessed as inhibition of subcutaneous pentylenetetrazole-induced seizures; format: functional
Mus musculus [16] = assay: Antiepileptic activity in CF1 mouse assessed as inhibition of maximal electroshock-induced seizures at 300 mg/kg, ip after 0.5 hrs; format: functional, organism-based; set-up: dose 300 mg/kg
Mus musculus [17] = assay: Antiepileptic activity in CF1 mouse assessed as inhibition of subcutaneous pentylenetetrazole-induced seizures at 300 mg/kg, ip after 0.5 hrs; format: functional, organism-based; set-up: dose 300 mg/kg
Mus musculus [18] = assay: Antiepileptic activity in CF1 mouse assessed as inhibition of subcutaneous pentylenetetrazole-induced seizures at 300 mg/kg, ip after 4 hrs; format: functional, organism-based; set-up: dose 300 mg/kg
Mus musculus [19] = assay: Neurotoxicity in CF1 mouse assessed as protection against motor impairment at 300 mg/kg, ip after 4 hrs by rotarod test; format: functional, organism-based; set-up: dose 300 mg/kg
Rattus norvegicus [20] = assay: Antiallodynic activity in ip dosed rat assessed as protection against spinal nerve ligation-induced neuropathic pain; format: functional
Mus musculus [21] = assay: Antiepileptic activity in ip dosed CF1 mouse assessed as inhibition of maximal electroshock-induced seizures; format: functional
Rattus norvegicus [22] = organism: Rattus norvegicus; assay: Ratio of ED50 for antiallodynic activity in rat assessed as protection against spinal nerve ligation-induced neuropathic pain to ED50 for antiepileptic activity in rat by maximal electroshock-induced seizures assay; format: functional
Rattus norvegicus [23] = assay: Anticonvulsant activity in albino Sprague-Dawley rat assessed as protection against pilocarpine-induced seizure at 100 mg/kg, ip; format: functional, organism-based; set-up: dose 100 mg/kg
Rattus norvegicus [24] = assay: Antiallodynic activity in rat assessed as protection against spinal nerve ligation-induced neuropathic pain at 80 mg/kg, ip after 180 mins; format: functional, organism-based; set-up: dose 80 mg/kg
Rattus norvegicus [25] = assay: Anticonvulsant activity in albino Sprague-Dawley rat assessed as protection against pilocarpine-induced seizure at 200 mg/kg, ip treated after 30 mins of pilcarpine challenge; format: functional, organism-based; set-up: dose 200 mg/kg
Rattus norvegicus [26] = assay: Antiallodynic activity in rat assessed as protection against spinal nerve ligation-induced neuropathic pain at 80 mg/kg, ip after 30 mins; format: functional, organism-based; set-up: dose 80 mg/kg
Rattus norvegicus [27] = assay: Antiallodynic activity in rat assessed as protection against spinal nerve ligation-induced neuropathic pain at 80 mg/kg, ip after 60 mins; format: functional, organism-based; set-up: dose 80 mg/kg
Rattus norvegicus [28] = assay: Antiallodynic activity in rat assessed as protection against spinal nerve ligation-induced neuropathic pain at 80 mg/kg, ip after 120 mins; format: functional, organism-based; set-up: dose 80 mg/kg
Rattus norvegicus [29] = assay: Anticonvulsant activity in albino Sprague-Dawley rat assessed as protection against pilocarpine-induced seizure at 37.5 mg/kg, ip; format: functional, organism-based; set-up: dose 37.5 mg/kg
Rattus norvegicus [30] = assay: Anticonvulsant activity in albino Sprague-Dawley rat assessed as protection against pilocarpine-induced seizure at 75 mg/kg, ip; format: functional, organism-based; set-up: dose 75 mg/kg
Rattus norvegicus [31] = assay: Anticonvulsant activity in ip dosed albino Sprague-Dawley rat assessed as protection against pilocarpine-induced seizure treated after 30 mins of pilcarpine challenge; format: functional; conditions: 0.5 h

SMILES | Activity (Mus musculus [1]) | Activity (Mus musculus [2]) | Activity (Mus musculus [3]) | Activity (Mus musculus [4]) | Activity (Mus musculus [5]) | Activity (Mus musculus [6]) | Activity (Mus musculus [7]) | Activity (Mus musculus [8]) | Activity (Mus musculus [9]) | Activity (Mus musculus [10]) | Activity (Mus musculus [11]) | Activity (Mus musculus [12]) | Activity (Mus musculus [13]) | Activity (Mus musculus [14]) | Activity (Mus musculus [16]) | Activity (Mus musculus [17]) | Activity (Mus musculus [18]) | Activity (Mus musculus [19]) | ED50 (Rattus norvegicus [20]) [mg/kg] | ratio (Rattus norvegicus [22]) | other results
CCCCC(CC)C(N)=O (stereo not given) | inactive | Active | inactive | inactive | inactive | inactive | inactive | inactive | inactive | inactive | inactive | Active | inactive | inactive |  |  |  |  |  |  | ED50 (Mus musculus [15]): 103 mg/kg
CC(C)(C)CC(=O)NC(N)=O | inactive | inactive | inactive | inactive | inactive | inactive |  | inactive | inactive | inactive |  | Active | inactive | inactive | Active | Active | inactive | inactive | 74 | 0.86 | ED50 (Mus musculus [21]): 64 mg/kg; Activity (Rattus norvegicus [23]): Active
CCCC(C(=O)NC(N)=O)C(C)C (stereo not given) | inactive | inactive | inactive | inactive | Active | inactive | Active | inactive | inactive |  |  |  |  |  | inactive | Active | inactive | inactive |  |  | Activity (Rattus norvegicus [24]): inactive; Activity (Rattus norvegicus [25]): Active; Activity (Rattus norvegicus [26]): inactive; Activity (Rattus norvegicus [27]): inactive; Activity (Rattus norvegicus [28]): inactive
CCC(C)C(CC)C(=O)NC(N)=O (stereo not given) [CAPURIDE] | inactive | Active | inactive | inactive | Active | inactive | Active | inactive | inactive |  | Active | Active | inactive | inactive | Active | Active | Active | Active | 49 | 0.49 | Activity (Rattus norvegicus [29]): Active; Activity (Rattus norvegicus [30]): Active; ED50 (Rattus norvegicus [31]): 23 mg/kg
